assay: RP, Restek Raptor Biphenyl, 100 × 2.1 mm, 2.7 µm, 50 °C, 0.4 mL/min, estimated dead time 0.55 min; A: water + 0.1% formic acid, pH 3; B: methanol + 0.1% formic acid, pH 3; gradient (min/%B) 0/5 1.12/5 6.41/99.5 10.01/99.5; conditions: stereoisomer not certain

Row | Structure (SMILES) | LC retention time [min]
1 | O=C(O)C=Cc1cnc[nH]1 [4-Imidazoleacrylic acid] | 0.718
2 | Cc1ncc(CO)c(C(=O)O)c1O [4-PYRIDOXATE] | 1.8
3 | Cc1ncc2c(c1O)C(=O)OC2 [4-Pyridoxolactone] | 2.25
4 | NCC(=O)CCC(=O)O [5-AMINOLEVULINATE] | 1.05
5 | O=C1CCCCO1 [5-VALEROLACTONE] | 2.44
6 | O=C(O)CCCCCC(=O)O [6-CARBOXYHEXANOATE] | 3.35
7 | O=C(O)CCCCCCCCCO [10-HYDROXYDECANOATE] | 4.92
8 | CCC(C)CCCCCCCCCCCCC(=O)O (stereo not drawn) [14-Methylhexadecanoic acid] | 6.58
9 | CC(C)CCCCCCCCCCCCCC(=O)O [15-Methylpalmitic acid] | 6.58
10 | CC(C)CCCCCCCCCCCCCCCC(=O)O [17-Methylstearic acid] | 6.7
11 | C#CCCCCCCCCCCCCCCCC(=O)O [17-Octadecynoic acid] | 6.53
12 | C[C@H](CCC(=O)O)[C@H]1CC[C@H]2[C@@H]3[C@H](O)C[C@@H]4C[C@H](O)CC[C@]4(C)[C@H]3CC(=O)[C@]12C [(3ALPHA,5BETA,7ALPHA)-3,7-DIHYDROXY-12-OXOCHOLAN-24-OIC ACID] | 6.07
13 | Nc1ncnc2c1ncn2C1OC(COP(=O)(O)O)C(OP(=O)(O)O)C1O (stereo not drawn) [ADENOSINE 3',5'-DIPHOSPHATE] | 0.695
14 | COP(=O)(NC(C)=O)SC (stereo not drawn) [Acephate] | 2.34
15 | O=C(O)CCCCC(=O)O [Adipic acid] | 2.5
16 | O=C(O)CCCCCCCC(O)C(O)CCCCCCO (stereo not drawn) [Aleuritic acid] | 4.92
17 | CCCCCCCCCCCCCCCCCCCC(=O)O [Arachidic acid] | 6.68
18 | O=C(O)CCCCCCCC(=O)O [Azelaic acid] | 4.48
19 | O=Cc1ccccc1 [BENZALDEHYDE] | 2.98
20 | O=C(O)CCCCC1SCC2NC(=O)NC21 (stereo not drawn) [BIOTIN] | 4
21 | CCC(Oc1ccc(F)c(C(F)(F)F)c1)C(=O)NCc1ccccc1 (stereo not drawn) [Beflubutamid] | 5.9
22 | CCCCCCCCCCCCCCCCCCCCCC(=O)O [Behenic acid] | 6.86

Row | Structure (SMILES) | LC retention time [min]
23 | CC[n+]1cccc(S(=O)(=O)[O-])c1 [C2-APS] | 0.835
24 | CCC[n+]1cccc(S(=O)(=O)[O-])c1 [C3-APS] | 1.67
25 | CCCC[n+]1cccc(S(=O)(=O)[O-])c1 [C4-APS] | 2.67
26 | CCCCC[n+]1cccc(S(=O)(=O)[O-])c1 [C5-APS] | 3.33
27 | CCCCCC[n+]1cccc(S(=O)(=O)[O-])c1 [C6-APS] | 3.92
28 | CCCCCCC[n+]1cccc(S(=O)(=O)[O-])c1 [C7-APS] | 4.41
29 | CCCCCCCC[n+]1cccc(S(=O)(=O)[O-])c1 [C8-APS] | 4.8
30 | CCCCCCCCC[n+]1cccc(S(=O)(=O)[O-])c1 [C9-APS] | 5.13
31 | CCCCCCCCCC[n+]1cccc(S(=O)(=O)[O-])c1 [C10-APS] | 5.39
32 | CCCCCCCCCCC[n+]1cccc(S(=O)(=O)[O-])c1 [C11-APS] | 5.61
33 | CCCCCCCCCCCC[n+]1cccc(S(=O)(=O)[O-])c1 [C12-APS] | 5.79
34 | CCCCCCCCCCCCC[n+]1cccc(S(=O)(=O)[O-])c1 [C13-APS] | 5.95
35 | CCCCCCCCCCCCCC[n+]1cccc(S(=O)(=O)[O-])c1 [C14-APS] | 6.1
36 | CCCCCCCCCCCCCCC[n+]1cccc(S(=O)(=O)[O-])c1 [C15-APS] | 6.23
37 | CCCCCCCCCCCCCCCC[n+]1cccc(S(=O)(=O)[O-])c1 [C16-APS] | 6.34
38 | CCCCCCCCCCCCCCCCC[n+]1cccc(S(=O)(=O)[O-])c1 [C17-APS] | 6.44
39 | CCCCCCCCCCCCCCCCCC[n+]1cccc(S(=O)(=O)[O-])c1 [C18-APS] | 6.52
40 | CCCCCCCCCCCCCCCCCCC[n+]1cccc(S(=O)(=O)[O-])c1 [C19-APS] | 6.61
41 | CCCCCCCCCCCCCCCCCCCC[n+]1cccc(S(=O)(=O)[O-])c1 [C20-APS] | 6.67
42 | CC(=O)OCC(=O)C1(O)CCC2C3CCC4=CC(=O)CCC4(C)C3C(O)CC21C (stereo not drawn) [CORTISOL 21-ACETATE] | 5.88
43 | CC12CCC(=O)C=C1CCC1C2C(O)CC2(C)C1CCC2(O)C(=O)CO (stereo not drawn) [CORTISOL] | 5.49
44 | Nc1nc2c(ncn2C2OC3COP(=O)(O)OC3C2O)c(=O)[nH]1 (stereo not drawn) [CYCLIC GMP] | 1.14

Row | Structure (SMILES) | LC retention time [min]
45 | CC1=C(C(=O)Nc2ccccc2)SCCO1 [Carboxin] | 5.79
46 | CNC(=O)c1cc(Cl)cc(C)c1NC(=O)c1cc(Br)nn1-c1ncccc1Cl [Chlorantraniliprole] | 5.84
47 | CC(CCC(=O)O)C1CCC2C3C(OS(=O)(=O)O)CC4CC(O)CCC4(C)C3CC(O)C12C (stereo not drawn) [Cholic acid 7-sulfate] | 5.85
48 | O=C(O)CC(O)(CC(=O)O)C(=O)O [Citric acid] | 0.743
49 | CC12CCC(=O)C=C1CCC1C2C(O)CC2(C)C(C(=O)CO)CCC12 (stereo not drawn) [Corticosterone] | 6.21
50 | O=C(O)[C@H](O)Cc1ccccc1 [D-(+)-3-Phenyllactic acid] | 3.79
51 | Nc1ncnc2c1ncn2C1CC(O)C(COP(=O)(O)O)O1 (stereo not drawn) [DEOXYADENOSINE MONOPHOSPHATE] | 0.818
52 | Nc1nc2c(ncn2C2CC(O)C(CO)O2)c(=O)[nH]1 (stereo not drawn) [DEOXYGUANOSINE] | 1.59
53 | O=c1ccn(C2CC(O)C(COP(=O)(O)O)O2)c(=O)[nH]1 (stereo not drawn) [DEOXYURIDINE-MONOPHOSPHATE] | 0.695
54 | O=c1ccn(C2CC(O)C(CO)O2)c(=O)[nH]1 (stereo not drawn) [DEOXYURIDINE] | 1.22
55 | CC1NC(=O)NC1CCCCCC(=O)O (stereo not drawn) [DETHIOBIOTIN] | 4.21
56 | Nc1nc2c(ncn2C2CC(O)C(COP(=O)(O)OP(=O)(O)O)O2)c(=O)[nH]1 (stereo not drawn) [DGDP] | 0.695
57 | NCCc1ccc(O)c(O)c1 [DOPAMINE] | 0.724
58 | Cc1cn(C2CC(O)C(COP(=O)(O)OP(=O)(O)OC3OC(CO)C(O)C(O)C3O)O2)c(=O)[nH]c1=O [DTDP-D-GLUCOSE] | 0.702
59 | CC(CCC(=O)O)C1CCC2C3C(=O)CC4CC(=O)CCC4(C)C3CC(=O)C12C (stereo not drawn) [Dehydrocholic acid] | 6.13
60 | CC(CCC(=O)O)C1CCC2C3CCC4CC(O)CCC4(C)C3CC(O)C12C (stereo not drawn) [Deoxycholic acid] | 6.37
61 | O=C(Nc1ccc(F)cc1F)c1cccnc1Oc1cccc(C(F)(F)F)c1 [Diflufenican] | 6.33
62 | CC(C)(C)C(O)C(=Cc1ccc(Cl)cc1Cl)n1cncn1 (stereo not drawn) [Diniconazole] | 6.05
63 | CNC(=N[N+](=O)[O-])NCC1CCOC1 (stereo not drawn) [Dinotefuran] | 3.16
64 | CN(C)C(=O)Nc1ccc(Cl)c(Cl)c1 [Diuron] | 5.22
65 | CCCCCCCCC=CCCCCCCCCCCCC(=O)O [Erucic acid] | 6.84
66 | Cc1cc2nc3c(=O)[nH]c(=O)nc-3n(CC(O)C(O)C(O)COP(=O)(O)OP(=O)(O)OCC3OC(n4cnc5c(N)ncnc54)C(O)C3O)c2cc1C (stereo not drawn) [FAD] | 4.07

Row | Structure (SMILES) | LC retention time [min]
67 | Nc1nc2ncc(CNc3ccc(C(=O)NC(CCC(=O)O)C(=O)O)cc3)nc2c(=O)[nH]1 (stereo not drawn) [FOLATE] | 3.67
68 | CC1(c2ccc(Oc3ccccc3)cc2)OC(=O)N(Nc2ccccc2)C1=O (stereo not drawn) [Famoxadone] | 6.68
69 | OC(c1ccc(Cl)cc1)(c1cncnc1)c1ccccc1Cl (stereo not drawn) [Fenarimol] | 6.02
70 | CC1(C(=O)Nc2ccc(O)c(Cl)c2Cl)CCCCC1 [Fenhexamid] | 5.83
71 | N#Cc1nn(-c2c(Cl)cc(C(F)(F)F)cc2Cl)c(N)c1S(=O)C(F)(F)F (stereo not drawn) [Fipronil] | 5.6
72 | N#CCNC(=O)c1cnccc1C(F)(F)F [Flonicamid] | 3.4
73 | O=[N+]([O-])c1cc(C(F)(F)F)c(Cl)c([N+](=O)[O-])c1Nc1ncc(C(F)(F)F)cc1Cl [Fluazinam] | 6.33
74 | Cc1cc(C(F)(C(F)(F)F)C(F)(F)F)ccc1NC(=O)c1cccc(I)c1C(=O)NC(C)(C)CS(C)(=O)=O [Flubendiamide] | 5.97
75 | N#Cc1c[nH]cc1-c1cccc2c1OC(F)(F)O2 [Fludioxonil] | 5.51
76 | Cc1ccn2nc(S(=O)(=O)Nc3c(F)cccc3F)nc2n1 [Flumetsulam] | 4.92
77 | CN(C)C(=O)Nc1cccc(C(F)(F)F)c1 [Fluometuron] | 4.92
78 | COc1cc(OC)nc(NC(=O)NS(=O)(=O)c2cc(NC=O)ccc2C(=O)N(C)C)n1 [Foramsulfron] | 5.76
79 | O=C(Nc1ccccc1)Nc1ccnc(Cl)c1 [Forchlorfenuron] | 5.17
80 | Nc1nc2c(ncn2C2OC(CO)C(O)C2O)c(=O)[nH]1 (stereo not drawn) [GUANOSINE] | 1.15
81 | O=C(O)CCCC(=O)O [Glutaric acid] | 1.37
82 | CC(CCC(=O)NCC(=O)O)C1CCC2C3CCC4CC(O)CCC4(C)C3CC(O)C12C (stereo not drawn) [Glycodeoxycholic acid] | 6.16
83 | CC(CCC(=O)NCC(=O)O)C1CCC2C3CC(O)C4CC(O)CCC4(C)C3CCC12C (stereo not drawn) [Glycohyodeoxycholic acid] | 5.79
84 | CC(CCC(=O)NCC(=O)O)C1CCC2C3CCC4CC(O)CCC4(C)C3CCC12C (stereo not drawn) [Glycolithocholic acid] | 6.37
85 | O=C(O)CNC(=O)c1ccccc1 [HIPPURATE] | 3.44
86 | O=C(O)Cc1cc(O)ccc1O [HOMOGENTISATE] | 1.47
87 | COc1cc(CC(=O)O)ccc1O [HOMOVANILLATE] | 2.46
88 | CC(C)(C)N(NC(=O)c1ccc(Cl)cc1)C(=O)c1ccccc1 [Halofenozide] | 5.6
